According to patent US20260209214A1, “LSD1 MODULATORS” (RECURSION PHARMACEUTICALS, INC., priority 2022, published 2026):

Molecular target: Recombinant human LSD1 (Homo sapiens, UniProt O60341)
Experiment: LSD1 inhibition assay (HTRF LSD1 Histone H3K4 mono-demethylation assay, me1->me0)
Assay type: biochemical
Conditions: 20 nM recombinant human LSD1, 95 nM H3K4(me1) biotinylated peptide, 15 min preincubation, 60 min at 25° C., read-out: LSD1 inhibition IC50 (nM range)
Outline: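 HTRF demethylation (me1->me0) read-out: streptavidin-XL665 and anti-H3K4me0 cryptate added after reaction, ratio measured after 90 min dark. Reaction: 95 nM H3K4me1 biotin-peptide, 20 nM LSD1 (15-min compound pre-incubation), 60 min, 25 °C, buffer pH 8.5 plus FAD and DTT; 4-parameter logistic IC50.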

IC50	Compound
25 to 100 nM	CN(C)C1CCN(c2cccc(-c3ccc(C#N)c(F)c3)c2-c2cnco2)CC1 [Example 95, 3'-[4-(dimethylamino)piperidin-1-yl]-3-fluoro-2'-(1,3-oxazol-5-yl)-[1,1'-biphenyl]-4-carbonitrile]
100 to 1000 nM	CC1(F)CCN(c2ccc(CC3CNCCO3)cc2-c2ccc(C#N)c(F)c2)CC1 (stereo not shown) [Example 99, 3-fluoro-2′-(4-fluoro-4-methylpiperidin-1-yl)-5′-[(morpholin-2-yl)methyl]-[1,1′-biphenyl]-4-carbonitrile]
100 to 1000 nM	COC1(C)CCN(c2ccc(CC3CNCCO3)cc2-c2ccc(C#N)c(F)c2)CC1 (stereo not shown) [Example 61, 3-fluoro-2′-(4-methoxy-4-methylpiperidin-1-yl)-5′-[(morpholin-2-yl)methyl]-[1,1′-biphenyl]-4-carbonitrile]
> 1000 nM	C[C@@H]1CCN(Cc2cccc(-c3ccc(C#N)c(F)c3)c2Cl)C[C@H]1N (racemic) [Example 331, 3'-{[(3S,4R)-3-amino-4-methylpiperidin-1-yl]methyl}-2'-chloro-3-fluoro-[1,1'-biphenyl]-4-carbonitrile]
25 to 100 nM	N#Cc1ccc(-c2cc(CC3CNCCCO3)ccc2N2CCC2)cc1F (stereo not shown) [Example 102, 2′-(azetidin-1-yl)-3-fluoro-5′-[(1,4-oxazepan-2-yl)methyl]-[1,1′-biphenyl]-4-carbonitrile]
25 to 100 nM	N#Cc1ccc(-c2cccc(CC3CCOCC3)c2-c2ccns2)cc1F [Example 111, 3-fluoro-3′-[(oxan-4-yl)methyl]-2′-(1,2-thiazol-5-yl)-[1,1′-biphenyl]-4-carbonitrile]
> 1000 nM	N#Cc1ccc(-c2cc(CC3CNCCO3)ccc2C2CCCO2)cc1F (stereo not shown) [Example 145, 3-fluoro-5′-[(morpholin-2-yl)methyl]-2′-(oxolan-2-yl)-[1,1′-biphenyl]-4-carbonitrile]
100 to 1000 nM	CC(C)C1(O)CN(c2ccc(CC3CNCCO3)cc2-c2ccc(C#N)c(F)c2)C1 (stereo not shown) [Example 122, 3-fluoro-2′-[3-hydroxy-3-(propan-2-yl)azetidin-1-yl]-5′-[(morpholin-2-yl)methyl]-[1,1′-biphenyl]-4-carbonitrile]
< 10 nM	N#Cc1ccc(-c2cccc(C[C@@H]3CNCCO3)c2-c2ccns2)cc1F [Example 28, 3-fluoro-3′-{[(2R)-morpholin-2-yl]methyl}-2′-(1,2-thiazol-5-yl)-[1,1′-biphenyl]-4-carbonitrile]
100 to 1000 nM	N#Cc1ccc(-c2cccc(CN3CC4CNCC3C4)c2Cl)cc1F (stereo not shown) [Example 238, 2'-chloro-3'-({3,6-diazabicyclo[3.2.1]octan-6-yl}methyl)-3-fluoro-[1,1'-biphenyl]-4-carbonitrile]
> 1000 nM	N#Cc1ccc(-c2cc(CC3CNCCO3)ccc2-c2ccn3cnnc3c2)cc1F (stereo not shown) [Example 157, 3-fluoro-5′-[(morpholin-2-yl)methyl]-2′-{[1,2,4]triazolo[4,3-a]pyridin-7-yl}-[1,1′-biphenyl]-4-carbonitrile]
10 to 25 nM	N#Cc1ccc(-c2ccc(F)c(CN3C[C@]4(N)CC[C@H]3C4)c2-c2cnco2)cc1F [Example 334, 3'-{[(1S,4S)-4-amino-2-azabicyclo[2.2.1]heptan-2-yl]methyl}-3,4'-difluoro-2'-(1,3-oxazol-5-yl)-[1,1'-biphenyl]-4-carbonitrile]
10 to 25 nM	N#Cc1ccc(-c2cccc(CN3C[C@]4(N)CC[C@H]3C4)c2-c2scnc2Cl)cc1F [Example 188, 3'-{[(1S,4S)-4-amino-2-azabicyclo[2.2.1]heptan-2-yl]methyl}-2'-(4-chloro-1,3-thiazol-5-yl)-3-fluoro-[1,1'-biphenyl]-4-carbonitrile]
> 1000 nM	N#Cc1ccc(-c2cccc(CN3CC4CC4(N)C3)c2Cl)cc1F (stereo not shown) [Example 287, 3'-({1-amino-3-azabicyclo[3.1.0]hexan-3-yl}methyl)-2'-chloro-3-fluoro-[1,1'-biphenyl]-4-carbonitrile]
100 to 1000 nM	Cc1ccncc1-c1ccc(CC2CNCCO2)cc1-c1ccc(C#N)c(F)c1 (stereo not shown) [Example 124, 3-fluoro-2′-(4-methylpyridin-3-yl)-5′-[(morpholin-2-yl)methyl]-[1,1′-biphenyl]-4-carbonitrile]
10 to 25 nM	N#Cc1ccc(-c2cccc(CN3C[C@]4(N)CC[C@H]3C4)c2-c2ocnc2F)cc1F [Example 174, 3'-{[(1S,4S)-4-amino-2-azabicyclo[2.2.1]heptan-2-yl]methyl}-3-fluoro-2'-(4-fluoro-1,3-oxazol-5-yl)-[1,1'-biphenyl]-4-carbonitrile]
< 10 nM	CC1(C)CN(Cc2cccc(-c3ccc(C#N)c(F)c3)c2-c2ccns2)C[C@H]1N (single isomer, unassigned) [Example 194]
100 to 1000 nM	N#Cc1ccc(-c2cccc(CN3CC4(N)CCC3CC4)c2Cl)cc1F [Example 328, 3'-({4-amino-2-azabicyclo[2.2.2]octan-2-yl}methyl)-2'-chloro-3-fluoro-[1,1'-biphenyl]-4-carbonitrile]
> 1000 nM	N#Cc1ccc(-c2cccc(CN3CCCC34CCCNC4)c2Cl)cc1F (stereo not shown) [Example 327, 2'-chloro-3'-({1,7-diazaspiro[4.5]decan-1-yl}methyl)-3-fluoro-[1,1'-biphenyl]-4-carbonitrile]
100 to 1000 nM	N#Cc1ccc(-c2cc(CC3CNCCO3)ccc2N2CC(c3ccc(C4CC4)nc3)C2)cc1F (stereo not shown) [Example 101, 2′-[3-(6-cyclopropylpyridin-3-yl)azetidin-1-yl]-3-fluoro-5′-[(morpholin-2-yl)methyl]-[1,1′-biphenyl]-4-carbonitrile]
25 to 100 nM	CN[C@H]1CCCN(Cc2cccc(-c3ccc(C#N)c(F)c3)c2C2CC2)CC1 [Example 215, 2'-cyclopropyl-3-fluoro-3'-{[(4S)-4-(methylamino)azepan-1-yl]methyl}-[1,1'-biphenyl]-4-carbonitrile]
10 to 25 nM	N#Cc1ccc(-c2cccc(CC3CNCCO3)c2-c2ccno2)cc1F (stereo not shown) [Example 16, 3-fluoro-3′-[(morpholin-2-yl)methyl]-2′-(1,2-oxazol-5-yl)-[1,1′-biphenyl]-4-carbonitrile]

Compound	IC50
N#Cc1ccc(-c2cc(CN3[C@@H]4CC[C@H]3[C@@H](N)C4)ccc2-c2nccs2)cc1F (racemic) [Example 253, 5'-{[(1S,2S,4R)-2-amino-7-azabicyclo[2.2.1]heptan-7-yl]methyl}-3-fluoro-2'-(1,3-thiazol-2-yl)-[1,1'-biphenyl]-4-carbonitrile]	25 to 100 nM
CC1(c2c(CN3[C@@H]4CC[C@H]3[C@@H](N)C4)cccc2-c2ccc(C#N)c(F)c2)CC1 (racemic) [Example 307, 3'-{[(1S,2S,4R)-2-amino-7-azabicyclo[2.2.1]heptan-7-yl]methyl}-3-fluoro-2'-(1-methylcyclopropyl)-[1,1'-biphenyl]-4-carbonitrile]	100 to 1000 nM
N#Cc1ccc(-c2cccc(CN3C4CCC3CNC4)c2C2CC2)cc1F [Example 265, 2'-cyclopropyl-3'-({3,8-diazabicyclo[3.2.1]octan-8-yl}methyl)-3-fluoro-[1,1'-biphenyl]-4-carbonitrile]	25 to 100 nM
N#Cc1ccc(-c2cc(CN3[C@@H]4CC[C@H]3[C@@H](N)C4)ccc2-c2ccc(F)cn2)cc1F (racemic) [Example 258, 5'-{[(1S,2S,4R)-2-amino-7-azabicyclo[2.2.1]heptan-7-yl]methyl}-3-fluoro-2'-(5-fluoropyridin-2-yl)-[1,1'-biphenyl]-4-carbonitrile]	25 to 100 nM
N#Cc1ccc(-c2cccc(CN3[C@@H]4CC[C@H]3[C@@H](N)C4)c2-c2ccsc2)cc1F (racemic) [Example 244, 3'-{[(1S,2S,4R)-2-amino-7-azabicyclo[2.2.1]heptan-7-yl]methyl}-3-fluoro-2'-(thiophen-3-yl)-[1,1'-biphenyl]-4-carbonitrile]	25 to 100 nM
COc1c(CN2[C@@H]3CC[C@H]2[C@@H](N)C3)cccc1-c1ccc(C#N)c(F)c1 (racemic) [Example 180, 3'-{[(1S,2S,4R)-2-amino-7-azabicyclo[2.2.1]heptan-7-yl]methyl}-3-fluoro-2'-methoxy-[1,1'-biphenyl]-4-carbonitrile]	25 to 100 nM
N#Cc1ccc(-c2ccc(F)c(CN3[C@@H]4CC[C@H]3[C@@H](N)C4)c2C2CC2)cc1F (racemic) [Example 181, N[C@@H]1C[C@@H]2CC[C@H]1N2Cc3c(F)ccc(c4ccc(C#N)c(F)c4)c3C5CC5]	10 to 25 nM
N#Cc1ccc(-c2cc(CN3[C@@H]4CC[C@H]3[C@@H](N)C4)ccc2OC(F)F)cc1F (racemic) [Example 310, 5'-{[(1S,2S,4R)-2-amino-7-azabicyclo[2.2.1]heptan-7-yl]methyl}-2'-(difluoromethoxy)-3-fluoro-[1,1'-biphenyl]-4-carbonitrile]	10 to 25 nM
CCN[C@@H]1C[C@@H]2CC[C@H]1N2Cc1cccc(-c2ccc(C#N)c(F)c2)c1C1CC1 (single isomer, unassigned) [Example 201]	10 to 25 nM
N#Cc1ccc(-c2cc(CN3[C@@H]4CC[C@H]3[C@@H](N)C4)ccc2N2CCC3(CCCO3)CC2)cc1F (racemic) [Example 224, 5'-{[(1S,2S,4R)-2-amino-7-azabicyclo[2.2.1]heptan-7-yl]methyl}-3-fluoro-2'-{1-oxa-8-azaspiro [4.5]decan-8-yl}-[1,1'-biphenyl]-4-carbonitrile]	10 to 25 nM
N#Cc1ccc(-c2cc(CN3[C@@H]4CC[C@H]3[C@@H](N)C4)ccc2OCC2CC2)cc1F (racemic) [Example 311, 5'-{[(1S,2S,4R)-2-amino-7-azabicyclo[2.2.1]heptan-7-yl]methyl}-2'-(cyclopropylmethoxy)-3-fluoro-[1,1'-biphenyl]-4-carbonitrile]	10 to 25 nM
N#Cc1ccc(-c2cc(CN3[C@@H]4CC[C@H]3[C@@H](N)C4)ccc2OC2CCC2)cc1F (racemic) [Example 312, 5'-{[(1S,2S,4R)-2-amino-7-azabicyclo[2.2.1]heptan-7-yl]methyl}-2'-cyclobutoxy-3-fluoro-[1,1'-biphenyl]-4-carbonitrile]	10 to 25 nM
